Like-named read-outs stand apart in the source and are kept apart here.
What was measured:
[1] = tested on: PDE4 enzyme isolated from U937 human monocytic cells; experiment: PDE4 inhibition, cAMP hydrolysis assay; assay type: biochemical; details: PDE4 from U937 cells, cAMP hydrolysis
Protocol: PDE4 enzyme was isolated from U937 human monocytic cells and used for testing inhibition in a cAMP hydrolysis assay as previously described ([Schafer et al. 2010]). For the TNF-α production assay, human peripheral blood mono-nuclear cells (PBMC) were isolated from buffy coat of normal donor blood units (Blood Center of New Jersey, East Orange, NJ) by density centrifugation over Ficoll Hypaque (Pharmacia, Piscataway, NJ). Cells were cultured in RPMI 1640 (Life Technologies, Grand Island, NY) supplemented with 5% AB^+ human serum (Gemini Bio-products, Woodland, CA), 2-mM L-glutamine, 100-U/mL penicillin and 100-μg/mL streptomycin (Life Technologies). PBMC (2×10^5 cells) were plated in 96-well flat-bottom Costar tissue culture plates (Corning, NY) in duplicate. Cells were stimulated with lipopolysaccharides (LPS) (from Salmonella abortus equi; Sigma cat.no. L-1887, St.Louis, MO) at a final concentration of 1 ng/mL in the absence or presence of compounds. The compounds were dissolved in DMSO (Sigma) and subsequent dilutions were done in culture medium immediately before use. The compounds were added to cells 1 h before LPS stimulation. The cells were incubated for 16-18 h at 37°C in 5% CO2, and super-natants were then collected, diluted with culture medium and assayed for TNF-α levels by enzyme-linked immunosorbent assay (ThermoFisher, Rockford, IL). Fifty percent inhibitory concentrations (IC50) for the PDE4 enzymatic and TNF-α assay were calculated by non-linear regression analysis using Prism 5.1 (GraphPad Software). Regression curves were sigmoidal dose response curves with maximum and minimum constrained to 100% and 0%, respectively.

[2] = Total radioactivity pharmacokinetics in plasma and whole blood; assay type: in vivo, human; details: single oral 20-mg dose
Protocol: Each subject was administered a single oral suspension of 20 mg (100 μCi) of [^14C] apremilast in distilled water (240mL total volume). Subjects were fasted for 8 h prior to and 4 h following dose administration. The residual radioactivity in the dosing vials was determined and accounted for approximately 0.3% of the total radioactivity. Dose administration, sample collection, sample processing and determination of total radioactivity were conducted at MDS Pharma Services (Lincoln, NE). Determination of apremilast in plasma, metabolite profiling and metabolite characterization were performed at XenoBiotic Laboratories, Inc. (Plainsboro, NJ).
Urine was collected pre-dose, 0-4, 4-8, 8-12, 12-24 and every 24 h thereafter up to 216h (9 days) following dose administration and was stabilized with one volume of pH 1.5 Sorensen's citrate buffer (25-mM sodium citrate buffer adjusted to pH 1.5). […] Blood (two 5-mL samples for plasma radioactivity counting, a 3-mL sample for whole blood radioactivity counting, a 2-mL sample for apremilast analysis and a 10-mL sample for metabolite profiling) was collected into heparinized tubes at pre-dose, 0.5, 1, 1.5, 2, 2.5, 3, 4, 6, 8, 12, 16, 24, 36, 48, 72, 96, 120, 144 and 168 h following dose administration. Blood samples collected for radioactivity counting were stored at or below -20°C until analysed. […] All urine, faecal homogenates and plasma samples were stored at or below -20°C until analysed.
All radioactivity determinations were performed using a Tri-Carb model 1600TR liquid scintillation counter (PerkinElmer, Wellesley, MA). For plasma and urine analysis, duplicate samples of a known volume were mixed with Ultima Gold XR scintillation cocktail and directly analysed by liquid scintillation counting. […] Using these criteria, the lower limit of quantification in plasma, blood, urine and faeces were 2.07 ng [^14C]apremilast equivalent/mL (ngEq/mL), 2.61 ngEq/g, 1.89 ngEq/mL and 2.52 ngEq/g, respectively. […]

[3] = Apremilast in plasma by chiral LC/MS/MS, non-compartmental PK; assay type: in vivo, human
Protocol: Urine was collected pre-dose, 0-4, 4-8, 8-12, 12-24 and every 24 h thereafter up to 216h (9 days) following dose administration and was stabilized with one volume of pH 1.5 Sorensen's citrate buffer (25-mM sodium citrate buffer adjusted to pH 1.5). Individual faecal samples were collected pre-dose and for up to 9 days following dose administration, and homogenized using approximately three volumes by weight of pH 1.5 Sorensen's citrate buffer. Blood (two 5-mL samples for plasma radioactivity counting, a 3-mL sample for whole blood radioactivity counting, a 2-mL sample for apremilast analysis and a 10-mL sample for metabolite profiling) was collected into heparinized tubes at pre-dose, 0.5, 1, 1.5, 2, 2.5, 3, 4, 6, 8, 12, 16, 24, 36, 48, 72, 96, 120, 144 and 168 h following dose administration. Blood samples collected for radioactivity counting were stored at or below -20°C until analysed. Plasma was harvested by centrifugation from all other blood samples. The plasma samples for apremilast analysis and metabolite profiling were mixed with an equal volume of pH 1.5 Sorensen's citrate buffer containing 20-μM amastatin. All urine, faecal homogenates and plasma samples were stored at or below -20°C until analysed.
Plasma concentrations of apremilast were determined using a Chiral liquid chromatography with tandem mass spectrometry (LC/MS/MS) assay validated for concentrations between 1.00 and 1000ng/mL, with quality control (QC) samples prepared at 3.00, 50.0 and 750 ng/mL. Apremilast and (3S-cis)-(+)-tetrahydro-3,7a-diphenylpyrrolo[2, 1-b] oxazol-5(6H)-one (internal standard; IS) were extracted from 50 μL of plasma (stabilized with 50-μL Sorenson's citrate buffer) using liquid-liquid extraction with methyl tertiary butyl ether. The aqueous layer was frozen and the solvent layer was transferred to a new tube. The solvent was evaporated, the samples were reconstituted and injected for LC/MS/MS analysis using a Chiral AGP (150×4.0mm, 5 μm; Chrom Tech, Inc., Apple Valley, MN) analytical column. Positive ions were measured in the multiple reaction monitoring (MRM) mode using a Sciex API-4000 tandem mass spectrometer equipped with a Turbo IonSpray source with precursor→product ion pairs of 461.0→177.9 for apremilast and 280.1→160.3 for IS. For the QC samples, the accuracy ranged from 87.5% to 106.7%.
Pharmacokinetic data were generated by non-compartmental analysis of plasma or whole blood versus time profiles using WinNonlin (version 4.1, Enterprise Edition). For individual subjects, the peak concentration (Cmax), time to Cmax (Tmax), area under the concentration versus time curve from time zero to the last quantifiable concentration (AUC0-t), area under the concentration versus time curve from time zero to infinity (AUC0-∞ and the apparent terminal elimination half-life (t½) were determined. AUC0-t) and AUC0-∞ were calculated using the linear trapezoidal rule. AUC0-∞ was calculated as the sum of […], where Clast, is the last observed quantifiable concentration.

IC50 [1]: 74 nM | Share of AUC0-∞ for radioactivity in plasma between 0 and 96 h [2]: approximately 90% | Share of AUC0-∞ for radioactivity in plasma from AUC96-∞ [2]: 10% | Plasma total radioactivity Tmax ([2]; median (min-max), listed as [^14C]apremilast): < 2 h | Plasma t½ ([3]; chiral LC/MS/MS assay, single oral 20-mg dose, mean ± SD): 6.8 ± 2.6 h | half-life ([3]; male, human, plasma, po, 20 mg, chiral LC/MS/MS assay, single oral 20-mg dose, mean ± SD, read-out: Plasma t½ (converted)): ~7 h | AUC ([3]; male, human, plasma, po, 20 mg, single oral 20-mg dose, read-out: AUC determined via LC/MS): 1910 ± 339 ng·h/mL | AUC ([3]; male, human, plasma, po, 20 mg, single oral dose 20 mg, 100 uCi, read-out: Mean AUC0 in plasma): 1970 ng·h/mL | AUC(0-t) ([3]; male, human, plasma, chiral LC/MS/MS assay, single oral 20-mg dose, mean ± SD, read-out: Plasma AUC0-t): 1910 ± 339 ng·h/mL | AUC(0-inf) ([3]; male, human, plasma, chiral LC/MS/MS assay, single oral 20-mg dose, mean ± SD, read-out: Plasma AUC0-∞): 1970 ± 343 ng·h/mL | Tmax ([3]; male, human, plasma, chiral LC/MS/MS assay, single oral 20-mg dose, median and range): < 2 h | Cmax ([3]; male, human, plasma, single oral dose 20 mg, 100 uCi): 333 ng/mL
SMILES: CCOc1cc([C@@H](CS(C)(=O)=O)N2C(=O)c3cccc(NC(C)=O)c3C2=O)ccc1OC [Apremilast, (+)-N-[2-[(lS)-1-(3-ethoxy-4-methoxyphenyl)-2-(methylsulfonyl)ethyl]-1,3-dioxo-2,3-dihydro-lH-isoindol-4-yl]acetamide]

From publication PMC3231940, “Disposition, metabolism and mass balance of [^14C]apremilast following oral administration” (Xenobiotica; the Fate of Foreign Compounds in Biological …, 2011)
